Data on ten molecules can be found in US5834491A, “Bis(2-aminopyridine)s, preparation method therefor and use thereof for controlling parasitic infections” (priority 1994, dated 1998).

Where a name gives a salt, the structure may show the parent alone. Read-outs that look alike come from different tables or passages of the source. Some results are limits rather than exact numbers.

For data set [1], the system named is Babesia. The following applies: McColm 1984; cited from earlier work.
Data set [2] deals with Babesia. The note with it: cited from earlier work.
In data set [3] the test system is Babesia. The note with it: cited from earlier work. The source holds these as a separate data set.
Another data set has as its system Plasmodium falciparum. Put plainly: Antimalarial activity in vitro towards Plasmodium falciparum ([3H]hypoxanthine incorporation, infected human erythrocytes). It is filed as cell-based. The note with it: Erythrocyte, approximately 48 hours; for IC50 upper bound (active at tested concentration): Table I. As for the experimental part: Evaluation of the antimalarial activity in vitro is carried out according to the method of DESJARDINS, CANFIELD, HATNES and CHULAY (Antimicrob. Agents Chemother., 1979, 16, 710-718). A compound according to the invention is brought into contact for approximately 48 hours with human erythrocytes infected with Plasmodium falciparum. When a radioactive nucleic acid precursor, hypoxanthine, is added to the preparation, only erythrocytes infected with Plasmodium and not affected by the said compound incorporate this precursor. […] The results are presented in Table I below, in the form of an IC50 (or ED50) (concentration of compound capable of inhibiting in vitro the growth of the parasites by 50%).
The derivatives according to the above examples are tested at three concentrations, 100, 33 and 10 nanomolar.

Data set [4] has as its system biosynthesis of phosphatidylcholine. Put plainly: Specificity towards phosphatidylcholine biosynthesis relative to other macromolecules (radiolabelled precursor incorporation). It is filed as cell-based. The note with it: relative to nucleic acids, proteins, other phospholipids. As for the experimental part:
Verification of the mechanism of action is carried out on the various derivatives according to the invention by studying the specific interference with phospholipid biosynthesis and measuring the biosynthesis of the different biomolecules, nucleic acids, proteins and phospholipids, on the basis of the incorporation of radiolabelled precursors, [^3 H]hypoxanthine (see above), [^3 H]isoleucine and [^3 H]choline. The specificity in the precise realm of phospholipid metabolism is determined by comparison with the effect on the incorporation of [^3 H]ethanolamine into phosphatidylethanolamine (Ancelin M. L., Vialettes F. and Vial H. J., 1991, Anal. Biochem., 199, 203-209).

Data set [5] relates to Plasmodium vinckei, petteri or chabaudi. Put plainly: Antimalarial activity in vivo, infected mice, 4 days. Also on record: species or system petteri or chabaudi (male Swiss mice). The following applies: ip, I.P., twice daily for 4 consecutive days. As for the experimental part: This activity is measured according to the test described by PETERS W. (Chemotherapy and Drug resistance in Malaria, 1970). A compound according to the invention is administered for 4 consecutive days to mice infected beforehand with malaria using Plasmodium vinckei, petteri or chabaudi.
The said compound is dissolved in 0.9% aqueous NaCl solution or, where appropriate, in 10% aqueous gum arabic solution. The preparations are thus administered intraperitoneally or subcutaneously to male Swiss mice of average weight 30 to 40 g which have been infected beforehand intravenously with Plasmodium petterei or P. chabaudi (10^6 infected cells). The compound is administered twice daily for 4 consecutive days, the first injection being performed 2 hours after infestation, and the second 10 hours after. The parasitaemia is determined by means of a smear on the day following the end of the treatment.
The results are collated in Table II, in the form of an ED50 (dose of compound administered in vivo capable of a 50% inhibition of the growth of the parasites).

Data set [6] can be described thus: Semi-chronic toxicity in vivo. The note with it: mouse, mice.
For data set [7] the following is noted: cited from earlier work.
The conditions of data set [8]: cited from earlier work. This is another data set of the same source.

The term IC50 denotes the midpoint of a concentration-inhibition curve. A high value points to lower potency. Broadly, the ED50 is the dose that gives a 50% effect, or the effect in half of the subjects. A lower ED50 goes with an effect at a small dose. In general, LD50 refers to the dose at which mortality reaches 50%.

In the case of `CO[C@H]1/C=C/O[C@@]2(C)Oc3c(C)c(O)c4c(O)c(cc(O)c4c3C2=O)NC(=O)/C(C)=C\C=C\[C@H](C)[C@H](O)[C@@H](C)[C@@H](O)[C@@H](C)[C@H](OC(C)=O)[C@@H]1C` [rifamycin], the “resistance of Babesia” value in the data set on Babesia [1] is listed as “increased resistance”.

For `O=C1C(O)=C(CCCCCCCCC2CCCCC2)C(=O)c2ccccc21` [menoctone], in the data set on Babesia [2], the “activity in vitro against Babesia” value was “active in vitro”. Further, the “results in vivo against Babesia” value in the data set with Babesia [3] was “without, however, giving good results in vivo”.

As to `Nc1ncnc2c1ccn2[C@@H]1O[C@H](CO)[C@@H](O)[C@H]1O` [tubercidin], in the data set on Babesia [2], the “activity in vitro against Babesia” value is listed as “active in vitro”. Moreover, the “results in vivo against Babesia” value with Babesia [3] is “without, however, giving good results in vivo”.

As to `Cc1ccn(CCCCCCCCCCCCn2ccc(C)cc2=N)c(=N)c1` [Example 1, 1,1'-(1,12-dodecanediyl)bis(4-methyl-2(1H)-pyridinimine) dihydrobromide], the IC50 upper bound (active at tested concentration) is under 33 nM in the data set with Plasmodium falciparum (33 nM, read-out: Plasmodium IC50 in vitro resp. at 33 nM) and under 100 nM in the data set with Plasmodium falciparum (100 nM, read-out: Plasmodium IC50 in vitro resp. 100 nM). Further, the IC50 with Plasmodium falciparum (Table II) turned out to be 0.5 nM. The “specificity of action towards the biosynthesis of phosphatidylcholine, relative to the biosyntheses of the other macromolecules” value in [4] was “best specificity of action towards the biosynthesis of phosphatidylcholine”. In data set [5], the ED50 worked out at 1.2 mg/kg. Further, the LD50 in data set [6] (ip, I.P., 2 injections daily for four days, read-out: Toxicity LD50 I.P.) was 30 mg/kg; in data set [6] (po, P.O., semi-chronic, four days, read-out: Toxicity LD50 P.O.), 365 mg/kg.

`CCO[C@H]1O[C@@H]2O[C@@]3(C)CC[C@H]4[C@H](C)CC[C@@H]([C@H]1C)[C@@]24OO3` [artether]: the water-solubility result in [7] was “low water-solubility”. In addition, in data set [8], the half-life entry is given as “short half-life”.

As to `C[C@H]1[C@H](OC(=O)CCC(=O)O)O[C@@H]2O[C@@]3(C)CC[C@H]4[C@H](C)CC[C@@H]1[C@@]24OO3` [artesunate], the water-solubility result in data set [7] was “low water-solubility”. For the same molecule, in data set [8], the half-life result was “short half-life”.

For `CC[C@H]1OC(=O)C[C@@H](O)[C@H](C)[C@@H](O[C@@H]2O[C@H](C)[C@@H](O[C@H]3C[C@@](C)(O)[C@@H](O)[C@H](C)O3)[C@H](N(C)C)[C@H]2O)[C@@H](CC=O)C[C@@H](C)C(=O)/C=C/C(C)=C/[C@@H]1CO[C@@H]1O[C@H](C)[C@@H](O)[C@@H](OC)[C@H]1OC` [tylosin], the “resistance of Babesia” value in the data set on Babesia [1] is “increased resistance”.

gramicidin D: the “resistance of Babesia” value in the data set on Babesia [1] is recorded as “increased resistance”.

For `CO[C@H]1O[C@@H]2O[C@@]3(C)CC[C@H]4[C@H](C)CC[C@@H]([C@H]1C)[C@@]24OO3` [artemether], the water-solubility result in [7] is recorded as “low water-solubility”. Further, in [8], the half-life result is listed as “short half-life”.

Consider `CN(C)C1C(=O)C(C(N)=O)=C(O)C2(O)C(=O)C3=C(O)c4c(O)cccc4C(C)(O)C3CC12` (stereo not shown) [tetracycline], for which the “activity in vitro against Babesia” value in the data set with Babesia [2] is given as “active in vitro”. The “results in vivo against Babesia” value with Babesia [3] is on record as “without, however, giving good results in vivo”.
